# pKi: −log10 of the molar value.
# Assay: In vitro inhibitory activity towards Coagulation factor X was determined using chromogenic substrate, MeO-COD-CHG-Gly-Arg-pNA
row,SMILES,pKi
1,N=C(N)c1ccc(CCN)cc1,3.12
2,CS(=O)(=O)c1ccc(C(=N)N)cc1,2.74
3,CP(=O)(O)c1ccc2c(N)nccc2c1,< 2.30
4,CN(C)c1ccc(P(C)(=O)O)cc1,2.39
5,CS(=O)(=O)CCc1ccc(C(=N)N)cc1,3.71
6,N=C(N)c1ccccc1 [BENZAMIDINE],3.46

# Continued, values first:
row,pKi,SMILES
1,3.71,N=C(N)c1ccc(N)cc1
2,4.26,N=C(N)c1ccc(CO)cc1
3,3.22,N=C(N)c1ccc(CCO)cc1
4,3.37,N=C(N)c1ccc(CN)cc1
5,4.52,N=C(N)c1ccc(O)cc1
6,< 2.30,CS(=O)(=O)Cc1ccc(C(=N)N)cc1

# Source: ChEMBL document CHEMBL1137904, “Design, synthesis, and evaluation of oxyanion-hole selective inhibitor substituents for the S1 subsite of factor Xa” (Bioorg Med Chem Lett, 2004)
